Laboratory results taken from patent publication US12304909B2, “Compounds and their use in therapy” (IMPERIAL COLLEGE INNOVATIONS LIMITED, priority 2018, dated 2025).
Values joined by “and” are separate entries in the source; they are usually repeats but may differ in a detail not shown here. Equal values may be shown once. Read-outs that look alike come from different tables or passages of the source.

Columns and labels:
human NMT1 (HsNMT1) = molecular target: T1, human NMT1 (HsNMT1) (Homo sapiens, UniProt P30419); experiment: HsNMT1 IC50, fluorescence-based assay detecting CoA with CPM; assay type: biochemical
T1 sequence (P30419 1-496): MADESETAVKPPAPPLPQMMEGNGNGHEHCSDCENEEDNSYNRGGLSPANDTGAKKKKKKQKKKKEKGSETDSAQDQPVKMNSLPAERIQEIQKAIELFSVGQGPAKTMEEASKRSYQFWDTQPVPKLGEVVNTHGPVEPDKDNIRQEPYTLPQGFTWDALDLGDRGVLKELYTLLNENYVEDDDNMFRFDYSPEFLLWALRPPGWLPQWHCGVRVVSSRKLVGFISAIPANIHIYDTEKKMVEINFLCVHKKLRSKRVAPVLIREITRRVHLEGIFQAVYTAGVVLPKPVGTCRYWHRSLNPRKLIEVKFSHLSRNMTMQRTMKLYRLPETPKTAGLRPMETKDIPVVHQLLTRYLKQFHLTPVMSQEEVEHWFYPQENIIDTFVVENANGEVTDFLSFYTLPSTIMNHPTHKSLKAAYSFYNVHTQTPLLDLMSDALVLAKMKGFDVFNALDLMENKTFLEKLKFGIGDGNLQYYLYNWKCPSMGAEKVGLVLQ
Description: The IC50 values for human NMT1 (HsNMT1) of four Example compounds of the invention described above (Examples 1-4) and six comparative examples (Comparative Examples 1, 2, 3, 4, 5 and 6) were measured using a sensitive fluorescence-based assay based on detection of CoA by 7-diethylamino-3-(4-maleimido-phenyl)-4-methylcoumarin, as described in Goncalves, V., et al., Analytical Biochemistry, 2012, 421, 342-344 and Goncalves, V., et al., J. Med. Chem, 2012, 55, 3578.

MRC5 cells = experiment: Metabolic activity assay (MTS assay), MRC5; assay type: cell-based, human
Description: (§1) Example NMT inhibitors of the present invention were tested for activity in an in vitro metabolic activity assay using the human cell line MRC5. Comparative Examples 1, 2, 3, 4, 5 and 6 were also tested in the same metabolic activity assay. Compounds having activity in inhibiting metabolic activity in the assay are expected to be useful as agents for preventing and/or treating cancer, by virtue of being inhibitors of human NMT1 and/or NMT2.
MRC5 cells (obtained from Dr David Mann's group, Imperial College; cell type: fibroblasts cells which derive from normal lung tissue) were grown in DMEM media (supplemented with 10% FBS) and were seeded in a 96-well plate, 24 h prior to treatment. Cell suspensions were prepared by adjusting the cell density to the appropriate concentration (as stated in the Table 1 below) and 50 μL of the cell suspension was transferred to wells B-G in columns 2-11 of a 96-well plate.
100 μL of growth media (DMEM media) containing 0.2% DMSO was added to wells B-G in columns 2 and 11 as positive controls, and 100 μl of growth media containing Puromycin (3 μg/mL; final concentration in the plate 2 μg/mL) was added to wells B-G in column 3 as a negative control. Seven concentrations of NMT inhibitor stock solution were prepared for each Example (Example 1 and 2) and each Comparative Example (Comparative Examples 1, 2, 3, 4, 5 and 6) tested (same final percentage of DMSO, dilution factor=3 starting from 15 μM or 150 μM). 100 μL of inhibitor stock solution was added to wells B-G in columns 4-10 of a 96-well plate (final concentration of Example compound or Comparative Example compound in the plate starting from 10 μM or 100 μM; total volume in each well was 150 μL). The plate was incubated at 37° C. with 5% CO2 level.
After 72 h, 20 μL MTS reagent (Promega, prepared according to the supplier protocol) was added to each well of the 96-well plate. The plate was incubated at 37° C. for 2 h and the absorbance per well was measured at 490 nm with an EnVision plate reader. The average absorbance value of the negative control (Puromycin-treated cells) was subtracted from each value and the metabolic activity was calculated as a percentage relative to the positive control (DMSO-treated cells). EC50 values were calculated using GraphPad.

MDA MB 231 cells = experiment: CellTiter-Blue assay, MDA MB 231; assay type: cell-based, human
Description: as §1, with “in” for “in an”, “CellTiter-Blue® assays” for “metabolic activity assay”, “MDA MB 231, LY 12318, or BL-41.” for “MRC5.”, “1” for “1, 2, 3, 4, 5”, “2” for “6”, “assays.” for “metabolic activity assay.”
(§2) MDA MB 231 cells (obtained from Professor Eric Aboagye, Hammersmith Hospital; cell type: triple negative breast cancer) were grown in low glucose DMEM in 5% CO2 media (supplemented with 10% FBS); LY 12318 cells (obtained from Dr Martin Janz, Max Delbrueck Center; cell type: B cell lymphoma patient derived xenograft) were grown in DMEM media (supplemented with 10% FBS); and BL-41 cells (obtained from Cell Services at the Crick Institute; cell type: Burkitt's Lymphoma) were grown in RPMI-1640 media in 5% CO2 (supplemented with 10% FBS). The MDA MB 231 cells, LY 12318 cells or BL-41 cells were seeded in 96-well plates, 24 h prior to treatment. Cell suspensions were prepared by adjusting the cell density to the appropriate concentration (as stated in the Table 2 below) and 50 μL of the cell suspension was transferred to wells B-G in columns 2-11 of a 96-well plate.
(§3) Twenty-four hours later, 50 μl of growth media (low glucose DMEM in 5% CO2 media supplemented with 10% FBS for MDA MB 231 cells; DMEM media in 5% CO2 supplemented with 10% FBS for LY 12318 cells; or RPMI-1640 media supplemented with 10% FBS for BL-41 cells) containing 0.0004% DMSO (positive control), a mix of Puromycin and Staurosporine (negative controls, final concentration 2 μg/mL and 1 μM respectively) or different concentrations of each Example (Example 1 and 2) or each Comparative Example (Comparative Example 1 and 2) (dilution factor=3, starting at […], final concentration in the plate starting from 10 μM) were prepared and added to a well of the 96-well plate. The plate was incubated at 37° C. with 5% CO2 level.
(§4) 72 hours later, 20 μl/well CellTiter-Blue® (G8081, Promega) were added to the plates according to the manufacturer's protocol, the plate was incubated at 37° C. for 4 h for MDA MB 231 cells and BL-41 cells, or 3 h for LY 12318 cells, followed by measuring the absorbance per well at 570 nm using an EnVision plate reader. The negative control values were subtracted from every value. The metabolic activity was calculated as a percentage relative to the positive control. The EC50 values were calculated using GraphPad Prism.

LY 12318 cells = experiment: CellTiter-Blue assay, LY 12318; assay type: cell-based, human; conditions: 72 h, read-out: LY12318 EC50
Description: as §1, with “in” for “in an”, “CellTiter-Blue® assays” for “metabolic activity assay”, “MDA MB 231, LY 12318, or BL-41.” for “MRC5.”, “1” for “1, 2, 3, 4, 5”, “2” for “6”, “assays.” for “metabolic activity assay.”
as §2, §3, §4

BL-41 cells = experiment: CellTiter-Blue assay, BL-41; assay type: cell-based, human
Description: as §1, with “in” for “in an”, “CellTiter-Blue® assays” for “metabolic activity assay”, “MDA MB 231, LY 12318, or BL-41.” for “MRC5.”, “1” for “1, 2, 3, 4, 5”, “2” for “6”, “assays.” for “metabolic activity assay.”
as §2, §3, §4

Rat hepatocyte half life = assay type: in vitro ADME, Sprague-Dawley rats; conditions: pooled cryopreserved rat hepatocytes, pH 7.4; pooled male Sprague-Dawley rat hepatocytes; read-out: Rat Hepatocyte t ½
Description: (§5) Example Compound 1 was tested for metabolic stability in rat metabolic assays using hepatocytes derived from pooled male Sprague-Dawley rats. Comparative Examples 2, 3 and 4 were also tested in the same assay. Compounds having good metabolic stability in the assay are expected to be especially useful as agents for preventing and/or treating cancer, by having a long half-life in human patients.
Frozen pooled rat hepatocytes obtained from LifeTechnologies were thawed and purified according to the manufacturer's instructions. The test compound (4 mM) in DMSO was diluted with acetonitrile to provide a 100 μM sub-stock then further diluted with pH7.4 Krebs-Henseleit buffer supplemented with CaCl2), NaHCO3, HEPES, fructose and glycine) to provide a 2 μM working solution. 25 μL of working solution was incubated at 37° C., treated with 25 μL of rat hepatocyte suspension (containing 1×10^6 cells/mL) and incubated at 37° C. with 5% CO2 level at 95% relative humidity. Wells were incubated for an appropriate time (0, 15, 30, 45, 60 and 75 min) then quenched with 250 μL of acetonitrile containing reference standards diltiazem, 7-ethoxycoumarin and propranolol). The plates were shaken, sonicated for 5 min then cooled to 4° C. until all sampling was complete. All plates were centrifuged at 4000 rpm for 20 min to pellet the debris. 110 μl supernatant was diluted 110 μL water and quantitated using LC-MS/MS.
The results were used to calculate the % Remaining of the test compound at time point t=100×˜[(AUC at time point t)/(AUC at T=0)]. A linear regression curve was fitted to a plot of natural logarithm (In) of AUC against time. The T-half (min)=0.693/slope

[1] = Human liver microsomes half life; assay type: in vitro ADME; conditions: pH 7.4, read-out: Human liver microsomes t ½
Description: as §5, with “an assay” for “rat metabolic assays”, “human liver microsomes.” for “hepatocytes derived from pooled male Sprague-Dawley rats.”, “3, 4, 5” for “3”, “6” for “4”, “patients” for “patients.”
Frozen human liver microsomes obtained from Corning, USA (cat #452117) were thawed and diluted with 100 mM of pH 7.4 phosphate buffer to give a 1 mg/ml solution. An NADPH regeneration system (NRS) was prepared as a solution containing 13 mM NADP, 33 mM glucose-6-phosphate, 33 mM MgCl2 and 4U/mL glucose-6-phosphate dehydrogenase in 100 mM of pH7.4 phosphate buffer. The test compound (4 mM) in DMSO was diluted with acetonitrile to provide a 100 μM sub-stock then further diluted with 100 mM of pH7.4 phosphate buffer to provide a 2 μM working solution. The liver microsome solution and NRS were incubated at 37° C. before use. To each well of the test plate was dispensed 60 μL of buffer, 50 μL of test compound solution and 10 μL of NRS. A reaction was initiated by addition of 40 μL of liver microsome solution. Wells were incubated for an appropriate time (0, 5, 10, 20, 30 and 60 min) then quenched with 300 μL of acetonitrile containing reference standards atenolol, propranolol, diclofenac, verapamil). All plates were centrifuged at 3500 rpm for 20 min at 15° C. to pellet the debris. 110 μL supernatant was diluted 110 μL water and quantitated using LC-MS/MS.
The results were used to calculate the % Remaining of the test compound at time point t=100×˜[(AUC at time point t)/(AUC at T=0)]. A linear regression curve was fitted to a plot of natural logarithm (In) of AUC against time. The T-half (min)=0.693/slope.

| Compound | IC50 (human NMT1 (HsNMT1)) | half-life at 0.625 µM [1] | EC50 (MRC5 cells; Homo sapiens, MRC5, 72 h) | EC50 (MDA MB 231 cells; Homo sapiens, MDA-MB-231, 72 h) | EC50 (LY 12318 cells; Homo sapiens) | other results |
| --- | --- | --- | --- | --- | --- | --- |
| Cc1c(CCOc2cc(F)ccc2-c2ccc3ncc(CCN)n3c2)c(C(=O)N(C)C)nn1C [Comparative Example 1, 4-(2-{2-[3-(2-aminoethyl)imidazo[1,2-a]pyridin-6-yl]-5-fluorophenoxy}ethyl)-N,N,1,5-tetramethyl-1H-pyrazole-3-carboxamide] | 2 nM | – | 450 nM | 285 nM | 246 nM | EC50 (BL-41 cells; Homo sapiens, BL-41, 72 h): 91 nM |
| Cc1c(CCOc2cc(F)ccc2-c2ccc3ncc(CN(C)C)n3c2)c(C(=O)N(C)C)nn1C [Comparative Example 4, 4-[2-(2-{3-[(dimethylamino)methyl]imidazo[1,2-a]pyridin-6-yl}-5-fluorophenoxy)ethyl]-N,N,1,5-tetramethyl-1H-pyrazole-3-carboxamide] | ~1 nM and 1 nM | 12 min | 63 nM | – | – | half-life at 1 µM (Rat hepatocyte half life): 32 min |
| CNC(=O)c1nn(C)c(C)c1CCOc1cc(Cl)ccc1-c1ccc2ncc(CCN)n2c1 [Example Compound 2, 4-(2-{2-[3-(2-aminoethyl)imidazo[1,2-a]pyridin-6-yl]-5-chlorophenoxy}ethyl)-N,1,5-trimethyl-1H-pyrazole-3-carboxamide] | – | – | < 40 nM | < 70 nM | < 70 nM | EC50 (MRC5 cells; 72 h): 37 nM; EC50 (MDA MB 231 cells; 72 h): 45 nM; EC50 (LY 12318 cells): 69 nM; EC50 (BL-41 cells; 72 h): 24 nM |
| CNC(=O)c1nn(C)c(C)c1CCOc1c(-c2ccc3ncc(CCN)n3c2)ccc(Cl)c1F [Example Compound 4, 4-(2-{6-[3-(2-aminoethyl)imidazo[1,2-a]pyridin-6-yl]-3-chloro-2-fluorophenoxy}ethyl)-N,1,5-trimethyl-1H-pyrazole-3-carboxamide] | 6.3 nM | – | – | – | – | – |

Now from value to compound, other results behind:

| IC50 (human NMT1 (HsNMT1)) | half-life at 0.625 µM [1] | Compound | EC50 (MRC5 cells; Homo sapiens, MRC5, 72 h) | EC50 (MDA MB 231 cells; Homo sapiens, MDA-MB-231, 72 h) | EC50 (LY 12318 cells; Homo sapiens) | other results |
| --- | --- | --- | --- | --- | --- | --- |
| – | 4 min | Cc1nn(C)c(C)c1CCOc1c(F)cccc1-c1ccc2c(c1)c(CN(C)C)nn2C [Comparative Example 6, 1-(5-(3-fluoro-2-(2-(1,3,5-trimethyl-1H-pyrazol-4-yl)ethoxy)phenyl)-1-methyl-1H-indazol-3-yl)-N,N-dimethylmethanamine] | 38 nM | – | – | – |
| 4.2 nM | – | Cc1c(CCOc2c(-c3ccc4ncc(CCN)n4c3)ccc(Cl)c2F)c(C(=O)N(C)C)nn1C [Example Compound 3, 4-(2-{6-[3-(2-aminoethyl)imidazo[1,2-a]pyridin-6-yl]-3-chloro-2-fluorophenoxy}ethyl)-N,N,1,5-tetramethyl-1H-pyrazole-3-carboxamide] | – | – | – | – |
